Data from US20220226354A1, “GLP-1 SECRETION-PROMOTING COMPOSITION” (SUNTORY HOLDINGS LIMITED, priority 2019, published 2022).

test system: not listed separately; test: Dissolution of sample during sample preparation (Experimental Example 2); assay type: physicochemical; conditions: final concentration of 1.5 mM (#24), 1% DMSO-containing PBS
Experimental: To 20 mg of RebC, 21 μL of DMSO (manufactured by FUJIFILM Wako Pure Chemical Corporation, model number: 037-24053) was added. The mixture was then stirred by vortex and allowed to stand for several hours to obtain a stock solution having a RebC concentration of 1,000 mM. The obtained stock solution and PBS were used to prepare a 10 mM solution.
The 10 mM solution was diluted as needed with 1% DMSO-containing PBS to obtain Sample G-1 mM to Sample G-10 mM. The concentrations of RebC are described in Table 1.

| dissolution of sample | Molecule |
| --- | --- |
| not able to be dissolved | rebaudioside C [RebC] |

test system: H716; test: GLP-1 secretion amount of sweeteners, 24 hours (Experimental Example 1); assay type: cell-based, human; conditions: H716, 24 hours after addition of stock solution, PBS as negative control (no sample)
Experimental: RebA. RebB, RebM. RebN. RebD. RebC, MogV, and stevioside were examined for their GLP-1 secretion-promoting effects. Specifically, the amount of GLP-1 secretion was measured by the following procedures.
Each test substance B, C, D, E, F, G, I, or J was dissolved in PBS (Thermo Fisher Scientific Inc.) (Cat. No. 14190250) to obtain a stock solution. The concentration of the stock solution is shown below:
B (RebA); 5 mM, C (RebB); 1M, D (RebM); 2.5 mM, E (RebN); 1M, F (RebD); 2.5 mM, G (RebC); 2.5 mM, I (MogV); 1M, J(stevioside); 1M
H716 (ATCC) (Cat. No. ATCC®, CCL-251) was cultured in RPMI 1640 (10% FBS (Thermo Fisher Scientific Inc.) (Cat. No. 10439024), 1 mM Sodium Pyruvate) in an incubator at 37° C., 5% CO2.
The preculture was performed for 2 weeks, and the cells were sufficiently recovered, and then cell stocks were prepared.
Cells were seeded in 96-well plates at 2×10^5 cells/90 μL (high) per well (N=4). At this time, the content of FBS in the medium was lowered to 0.5% to suppress cell proliferation.
After 24 hours, the sample at the highest concentration (i.e., stock solution) was added by […] each.
After further 24 hours, quantitation of GLP-1 was performed. Specific procedures were followed the user guide of Human GLP-1 (7-36 amide) Immunoassay kit (Cat. No. AL359) (Lot number 2361115) provided by PerkinElmer, Inc. PBS was used as a negative control (no sample).

| Molecule | amount of GLP-1 secretion compared with no sample |
| --- | --- |
| rebaudioside B [RebB] | significantly larger amounts of GLP-1 secretion than no sample |
| C=C1C[C@@]23CC[C@H]4[C@@](C)(CCC[C@@]4(C)C(=O)O[C@@H]4O[C@H](CO)[C@@H](O)[C@H](O)[C@H]4O)[C@@H]2CC[C@]1(O[C@@H]1O[C@H](CO)[C@@H](O)[C@H](O)[C@H]1O[C@@H]1O[C@H](CO)[C@@H](O)[C@H](O)[C@H]1O)C3 [stevioside, Stevioside] | significantly larger amounts of GLP-1 secretion than no sample |
| C[C@H](CC[C@@H](O[C@@H]1O[C@H](CO[C@@H]2O[C@H](CO)[C@@H](O)[C@H](O)[C@H]2O)[C@@H](O)[C@H](O)[C@H]1O[C@@H]1O[C@H](CO)[C@@H](O)[C@H](O)[C@H]1O)C(C)(C)O)[C@H]1CC[C@@]2(C)[C@@H]3CC=C4[C@@H](CC[C@H](O[C@@H]5O[C@H](CO[C@@H]6O[C@H](CO)[C@@H](O)[C@H](O)[C@H]6O)[C@@H](O)[C@H](O)[C@H]5O)C4(C)C)[C@]3(C)[C@H](O)C[C@]12C [MogV, mogroside V] | significantly larger amounts of GLP-1 secretion than no sample |
| rebaudioside C [RebC] | significantly larger amounts of GLP-1 secretion than no sample |
| C=C1C[C@@]23CC[C@H]4[C@@](C)(CCC[C@@]4(C)C(=O)O[C@@H]4O[C@H](CO)[C@@H](O)[C@H](O)[C@H]4O)[C@@H]2CC[C@]1(O[C@@H]1O[C@H](CO)[C@@H](O)[C@H](O[C@@H]2O[C@H](CO)[C@@H](O)[C@H](O)[C@H]2O)[C@H]1O[C@@H]1O[C@H](CO)[C@@H](O)[C@H](O)[C@H]1O)C3 [RebA, Rebaudioside A] | significantly larger amounts of GLP-1 secretion than no sample |
